Laboratory results published in PubChem BioAssay (NCI).
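The compound was tested at five concentrations on cells cultured in 96-well plates, with a 48-hour exposure period. GI50 marks 50% less growth. TGI denotes the concentration required for complete inhibition of growth.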

What was measured:
Test in all cases: NCI-60 cell line screen, 48 h
COLO 205 colon = test system: COLO 205 colon
HCT-116 colon = test system: HCT-116 colon
HCT-15 colon = test system: HCT-15 colon
MDA-MB-435 = test system: MDA-MB-435
MOLT-4 leukemia = test system: MOLT-4 leukemia
OVCAR-8 ovarian = test system: OVCAR-8 ovarian
RPMI-8226 leukemia = test system: RPMI-8226 leukemia
SF-295 CNS = test system: SF-295 CNS
SN12C renal = test system: SN12C renal
UACC-257 melanoma = test system: UACC-257 melanoma

| Structure (SMILES) | GI50 (COLO 205 colon) [µM] | TGI (COLO 205 colon) [µM] | GI50 (HCT-116 colon) [µM] | TGI (HCT-116 colon) [µM] | GI50 (HCT-15 colon) [µM] | TGI (HCT-15 colon) [µM] | GI50 (MDA-MB-435) [µM] | TGI (MDA-MB-435) [µM] | GI50 (MOLT-4 leukemia) [µM] | TGI (MOLT-4 leukemia) [µM] | GI50 (OVCAR-8 ovarian) [µM] | TGI (OVCAR-8 ovarian) [µM] | GI50 (RPMI-8226 leukemia) [µM] | TGI (RPMI-8226 leukemia) [µM] | GI50 (SF-295 CNS) [µM] | TGI (SF-295 CNS) [µM] | GI50 (SN12C renal) [µM] | TGI (SN12C renal) [µM] | GI50 (UACC-257 melanoma) [µM] | TGI (UACC-257 melanoma) [µM] |
| --- | --- | --- | --- | --- | --- | --- | --- | --- | --- | --- | --- | --- | --- | --- | --- | --- | --- | --- | --- | --- |
| CCCCCCCCCCC(C(O)c1ccccc1)N1CCCCC1 (centres undefined) | 1.54 | 2.93 | 1.62 | 3.01 | 1.63 | 4.38 | 1.66 | 3.03 | 2.23 | 5.86 | 3.29 | 13 | 1.9 | 4.34 | 1.83 | 3.23 | 2.55 | 10.4 | 2.02 | 4.28 |
| C=C1C(=O)O[C@H]2[C@H](OC(C)=O)[C@@H](C)CCC/C(C)=C/CC[C@@]3(C)O[C@@H]3C[C@@H]12 |  | 16.5 |  | 6.83 |  | 10.1 |  | 15.1 |  | 10.1 |  | 2.63 |  | 6.5 |  | 28.5 |  | 4.05 |  | 11.7 |
| CCCCCCCCCCCCOC1C(C(COC2OC(C3COC(C)(C)O3)C3OC(C)(C)OC23)NC(=O)NS(=O)(=O)c2ccccc2)OC2OC(C)(C)OC21 (centres undefined) | 4.37 | 20.7 | 4.05 | 16.3 | 3.68 | 15 | 4.6 | 21.5 | 0.0149 | 0.12 | 3.35 | 23.9 | 1.95 | 6.77 | 3.52 | 16.6 | 3.95 | 15.2 | 4 | 16.5 |
| CCC[CH2][Sn]([CH2]CCC)([CH2]CCC)[O]C(=O)c1ccc(Cl)cc1Cl | 0.183 | 0.375 | 0.127 | 0.262 | 0.173 | 0.419 | 0.16 | 0.335 | 0.215 | 1.71 | 0.183 | 0.373 | 0.146 |  | 0.197 | 0.375 | 0.145 | 0.35 | 0.155 | 0.313 |
| O=C(O)c1cc(-c2ccncc2)nc2ccccc12 |  | > 100 |  | > 100 |  | > 100 |  | > 100 |  | > 100 |  | > 100 |  | > 100 |  | > 100 |  | > 100 |  | > 100 |
| COc1ccc(C(=O)/C=C/c2ccc3c(c2)OCO3)c(OCc2ccccc2)c1 |  | > 100 |  | > 100 |  | > 100 |  | > 100 |  | > 26.4 |  | > 100 |  | 76.6 |  | > 100 |  | > 100 |  | > 100 |
| COC(=O)C1=C(C(=O)OC)SC(=C(Cl)C(=S)Nc2ccccc2O)S1 | 16.2 | > 50 | 0.143 | > 50 | 17.7 | > 50 | 3.82 | 17 | 46.8 | > 50 | 25.3 | > 50 | 33 | > 50 | 6.57 | 24.9 | 9.69 | 19.7 | 12.4 | 26.3 |
| COC(=O)C1CCCN1C(=O)[C@@H]1CCCN1C(=O)[C@H](Cc1c[nH]c2ccccc12)NC(=S)Nc1cc(C(F)(F)F)cc(C(F)(F)F)c1 (some centres undefined) | 1.72 | 3.21 | 1.72 | 3.34 | 3.41 | 12.8 | 3.03 | 12.4 | 2.04 | 8.62 | 1.92 | 4.2 | 2.93 | 8 | 1.77 | 4.08 | 2.82 | 10.5 | 2.4 | 8.17 |
| Cc1cc(=O)[nH]c2cc3c(c4c(n3Cc3ccc(Cl)cc3Cl)CC(C)(C)CC4=O)c(O)c12 | > 100 | > 100 | > 100 | > 100 | > 100 | > 100 | 57.4 | > 100 | > 100 | > 100 | > 100 | > 100 | > 100 | > 100 | 16.4 | 63.5 | > 100 | > 100 | > 100 | > 100 |
| O=C(c1ccccc1)C(Br)C(Br)c1cccc([N+](=O)[O-])c1 (centres undefined) | 1.86 | 3.46 | 0.864 | 2.08 | 1.72 | 3.36 | 2.52 | 7.19 | 2.09 | 5.39 | 3.35 | 12.7 | 2.15 | 6.24 | 10.8 | 24 | 1.88 | 4.21 | 1.8 | 3.89 |
| Cc1cc(NCc2cc(Nc3ccnc4cc(Cl)ccc34)ccc2F)nc(N2CCN(C)CC2)n1 | 1.72 | 3.66 | 1.25 | 2.88 | 1.34 | 3.45 | 1.52 | 2.96 | 1.39 | 8.17 | 3.14 | 12.9 | 1.32 | 3.65 | 1.09 | 2.55 | 2.32 | 8.31 | 1.87 | 3.68 |
| C=C(C)[C@@H]1CC[C@]2(C)[C@H](CC=C3[C@@H]4[C@@H](C)[C@H](C)CC[C@]4(C(N)=O)CC[C@]32C)[C@@]1(C)CCC#N | 4.01 | 15.6 | 15.6 | 29.9 | 3.44 | > 100 | 4.36 | > 100 | 2.92 | 21 | 5.38 | 27.5 | 2.18 | 6.27 | 4.44 | > 100 | 3.36 | 10.7 | 5.39 | 76.5 |
